How the values were obtained:
[1] = tested on: A673 cells; assay: Inhibition of proliferation of A673 cells (CyQUANT, 72 hour); type: cell-based, human; details: read-out: Inhibition of Proliferation of A673 Cells (calculated IC50)
Method: A673 Cells: A673 cells are a cell line derived from human muscle Ewing's sarcoma. Representative compounds of the invention were tested at different concentrations (from 4 μM to […]; 0.5 log serial dilutions) for their ability to inhibit the proliferation of A673 cells. Known CDK inhibitors dinaciclib or N-((1S,3R)-3-((5-chloro-4-(1H-indol-3-yl)pyrimidin-2-yl)amino)cyclohexyl)-5-((E)-4-(dimethylamino)but-2-enamido)picolinamide and triptolide were used as positive controls. Cells were grown in Dulbecco's Modified Eagle's Medium, +10% FBS+1 mM Sodium Pyruvate. The cells were cultured at 37° C. in a humidified chamber in the presence of 5% CO2. Proliferation assays were conducted over a 72 hour time period. CyQUANT® (Life Technologies, Chicago, Ill. USA) was used to assess the anti-proliferative effects of the compounds following manufacturer's directions and utilizing the reagents supplied with the CyQUANT® kit.

[2] = target: CDK2/Cyclin E1 complex (Homo sapiens, UniProt P24941); assay: CDK2 kinase inhibition assay (Caliper/LabChip EZ Reader); type: biochemical; details: CDK2/Cyclin E1 0.5 nM, ATP 2 mM, 35 min at 27° C.
Method: (§1) Compounds of the invention were assayed for inhibition of CDK7, CDK9, CDK12, and CDK2 activity at Biortus Biosciences (Jiangyin, Jiangsu Province, P.R. of China) using kinase assays for each CDK developed with a Caliper/LabChip EZ Reader (Perkin Elmer, Waltham, Mass.).
(§2) Furthermore, the CDK9 inhibition assay used CDK9/Cyclin T1 complex (8 nM) and “5-FAM-CDK9tide” peptide substrate (2 μM, synthesized fluorophore-labeled peptide with the following sequence: 5-FAM-GSRTPMY-NH2 where 5-FAM is defined above and NH2 signifies a C-terminal amide) with 10 mM MgCl2 in the buffer composition listed above. The CDK12 inhibition assay used CDK12 (aa686-1082)/Cyclin K complex (50 nM) and “5-FAM-CDK9tide” (2 μM) as defined above, with 2 mM MgCl2 in the buffer composition above. Additionally, the CDK2 inhibition assay used CDK2/Cyclin E1 complex (0.5 nM) and “5-FAM-CDK7tide” (2 μM) as defined above, with 2 mM MgCl2 in the buffer composition listed above.
(§3) The incubation period at 27° C. for each CDK inhibition assay was chosen such that the fraction of phosphorylated peptide product produced in each assay, relative to the total peptide concentration, was approximately 20% (±5%) for the uninhibited kinase (35 min. for CDK7, 35 min. for CDK2, 3 hr. for CDK12, 15 min. for CDK9).

[3] = target: CDK9/Cyclin T1 complex (Homo sapiens, UniProt P50750); assay: CDK9 kinase inhibition assay (Caliper/LabChip EZ Reader); type: biochemical; details: CDK9/Cyclin T1 8 nM, ATP 2 mM, 15 min at 27° C.
Method: as §1, §2, §3

[4] = target: CDK7/Cyclin H/MAT1 complex (Homo sapiens, UniProt P50613); assay: CDK7 kinase inhibition assay (Caliper/LabChip EZ Reader); type: biochemical; details: CDK7/Cyclin H/MAT1 6 nM, ATP 2 mM, 35 min at 27° C.
Method: as §1, §2, §3

[5] = target: T1, CDK12 (aa686-1082)/Cyclin K complex (Homo sapiens, UniProt Q9NYV4); assay: CDK12 kinase inhibition assay (Caliper/LabChip EZ Reader); type: biochemical; details: CDK12 (aa686-1082)/Cyclin K 50 nM, ATP 2 mM, 3 hr at 27° C.
T1 construct: CDK12 (aa686-1082)/Cyclin K complex
Method: as §1, §2, §3

CDK9/Cyclin T1 complex, sequence (P50750 whole entry): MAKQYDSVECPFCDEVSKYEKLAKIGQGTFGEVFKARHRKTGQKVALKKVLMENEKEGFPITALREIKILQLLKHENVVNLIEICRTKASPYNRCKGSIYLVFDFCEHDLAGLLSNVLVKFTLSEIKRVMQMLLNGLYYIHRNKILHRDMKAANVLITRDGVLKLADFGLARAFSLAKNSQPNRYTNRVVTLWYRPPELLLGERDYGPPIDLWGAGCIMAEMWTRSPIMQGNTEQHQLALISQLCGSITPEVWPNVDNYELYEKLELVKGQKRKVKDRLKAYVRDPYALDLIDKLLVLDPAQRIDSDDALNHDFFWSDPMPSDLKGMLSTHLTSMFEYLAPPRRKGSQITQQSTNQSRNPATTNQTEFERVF
CDK9/Cyclin T1 complex, sequence (O60563 whole entry partner): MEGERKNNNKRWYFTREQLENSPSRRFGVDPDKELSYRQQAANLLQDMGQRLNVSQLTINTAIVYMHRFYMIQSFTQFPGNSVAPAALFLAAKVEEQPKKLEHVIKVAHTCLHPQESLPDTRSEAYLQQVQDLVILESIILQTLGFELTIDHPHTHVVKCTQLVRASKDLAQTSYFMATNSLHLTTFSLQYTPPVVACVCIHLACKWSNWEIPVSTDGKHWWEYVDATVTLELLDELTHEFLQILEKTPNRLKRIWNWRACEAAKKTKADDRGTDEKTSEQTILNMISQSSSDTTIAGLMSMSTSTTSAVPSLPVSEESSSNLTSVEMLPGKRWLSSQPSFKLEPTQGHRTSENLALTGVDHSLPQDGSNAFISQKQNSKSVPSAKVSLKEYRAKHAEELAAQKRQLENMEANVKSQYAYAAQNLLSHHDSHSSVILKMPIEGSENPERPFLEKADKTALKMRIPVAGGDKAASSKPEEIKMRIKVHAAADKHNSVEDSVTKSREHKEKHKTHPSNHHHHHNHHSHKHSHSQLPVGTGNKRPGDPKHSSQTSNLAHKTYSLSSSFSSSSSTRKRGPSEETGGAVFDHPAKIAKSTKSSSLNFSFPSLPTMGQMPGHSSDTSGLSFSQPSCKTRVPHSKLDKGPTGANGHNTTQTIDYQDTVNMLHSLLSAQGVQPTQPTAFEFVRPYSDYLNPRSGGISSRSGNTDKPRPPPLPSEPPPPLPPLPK
CDK7/Cyclin H/MAT1 complex, sequence (P50613 whole entry): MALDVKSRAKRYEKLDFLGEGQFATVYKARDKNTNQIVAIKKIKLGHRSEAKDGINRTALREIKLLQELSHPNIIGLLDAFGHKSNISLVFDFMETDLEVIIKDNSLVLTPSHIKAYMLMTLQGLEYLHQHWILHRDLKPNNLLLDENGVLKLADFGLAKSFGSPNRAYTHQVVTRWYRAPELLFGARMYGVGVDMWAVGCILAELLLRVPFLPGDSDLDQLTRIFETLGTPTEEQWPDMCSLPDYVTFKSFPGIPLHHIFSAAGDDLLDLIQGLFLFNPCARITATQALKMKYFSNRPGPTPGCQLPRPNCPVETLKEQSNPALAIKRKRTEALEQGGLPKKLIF
CDK7/Cyclin H/MAT1 complex, sequence (P51946 whole entry partner): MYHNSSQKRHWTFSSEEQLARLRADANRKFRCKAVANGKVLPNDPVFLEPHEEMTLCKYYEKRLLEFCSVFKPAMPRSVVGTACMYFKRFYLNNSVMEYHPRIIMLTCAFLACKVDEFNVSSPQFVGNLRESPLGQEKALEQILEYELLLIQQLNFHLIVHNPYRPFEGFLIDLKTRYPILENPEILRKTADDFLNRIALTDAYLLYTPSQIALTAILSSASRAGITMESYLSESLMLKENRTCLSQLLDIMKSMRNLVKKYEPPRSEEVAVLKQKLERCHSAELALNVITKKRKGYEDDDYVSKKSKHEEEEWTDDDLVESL
CDK7/Cyclin H/MAT1 complex, sequence (P51948 whole entry partner): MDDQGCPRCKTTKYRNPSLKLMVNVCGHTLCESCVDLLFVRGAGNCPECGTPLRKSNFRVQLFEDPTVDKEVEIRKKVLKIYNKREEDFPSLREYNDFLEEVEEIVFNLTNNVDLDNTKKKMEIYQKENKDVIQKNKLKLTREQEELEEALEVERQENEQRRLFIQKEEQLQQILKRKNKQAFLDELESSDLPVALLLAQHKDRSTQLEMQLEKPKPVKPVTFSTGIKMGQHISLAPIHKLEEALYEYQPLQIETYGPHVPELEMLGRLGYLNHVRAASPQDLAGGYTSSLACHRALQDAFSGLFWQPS
T1 sequence (Q9NYV4 686-1082): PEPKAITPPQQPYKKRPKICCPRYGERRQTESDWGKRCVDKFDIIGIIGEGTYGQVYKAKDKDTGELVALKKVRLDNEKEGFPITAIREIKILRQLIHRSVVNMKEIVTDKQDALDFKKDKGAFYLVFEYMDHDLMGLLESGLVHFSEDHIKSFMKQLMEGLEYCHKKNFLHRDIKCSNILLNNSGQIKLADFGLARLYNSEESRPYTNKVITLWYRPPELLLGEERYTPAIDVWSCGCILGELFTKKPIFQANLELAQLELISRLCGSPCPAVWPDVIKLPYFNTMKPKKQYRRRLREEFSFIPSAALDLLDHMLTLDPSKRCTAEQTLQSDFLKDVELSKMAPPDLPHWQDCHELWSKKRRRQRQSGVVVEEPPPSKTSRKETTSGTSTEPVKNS
T1 sequence (O75909 whole entry partner, the tested form may be a part): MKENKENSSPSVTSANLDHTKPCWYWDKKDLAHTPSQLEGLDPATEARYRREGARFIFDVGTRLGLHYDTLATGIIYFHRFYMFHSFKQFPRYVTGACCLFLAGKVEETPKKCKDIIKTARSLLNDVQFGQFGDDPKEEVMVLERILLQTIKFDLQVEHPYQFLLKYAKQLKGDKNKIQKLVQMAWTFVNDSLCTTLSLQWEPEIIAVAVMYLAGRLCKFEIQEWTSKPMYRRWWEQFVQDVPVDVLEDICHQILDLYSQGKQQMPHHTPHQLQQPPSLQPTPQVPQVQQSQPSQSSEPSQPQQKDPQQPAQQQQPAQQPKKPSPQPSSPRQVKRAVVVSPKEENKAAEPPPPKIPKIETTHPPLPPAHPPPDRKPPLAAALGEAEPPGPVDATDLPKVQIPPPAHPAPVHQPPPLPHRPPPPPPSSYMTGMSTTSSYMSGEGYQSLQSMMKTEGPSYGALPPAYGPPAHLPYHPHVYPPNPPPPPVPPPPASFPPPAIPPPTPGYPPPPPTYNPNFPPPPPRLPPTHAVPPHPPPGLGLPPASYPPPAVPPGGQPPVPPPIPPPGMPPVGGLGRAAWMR

SMILES | IC50 [2] [µM] | IC50 [3] [µM] | IC50 [4] [µM] | IC50 [5] [µM] | IC50 [1] [µM]
CC(C)n1cc(-c2nc(NC3CCCNC3)ncc2Cl)c2ccccc21 (centres unmarked) [Compound 127] | 0.2 to 5 | 0.2 to 5 | 0.2 to 5 | ≥ 5 | 0.2 to 5
COCCn1cc(-c2nc(NC3CCCNC3)ncc2C(F)(F)F)c2ccccc21 (centres unmarked) [Compound 123] | ≥ 5 | 0.2 to 5 | 0.02 to 0.2 | ≥ 5 | 0.2 to 5
Cc1[nH]c2ccccc2c1-c1nc(NC2CCCNC2)ncc1Cl (centres unmarked) [Compound 106] | ≥ 5 | 0.2 to 5 | 0.02 to 0.2 | 0.2 to 5 | 0.02 to 0.2
CCc1cnc(NC2CCCNC2)nc1-c1n[nH]c2ccccc12 (centres unmarked) [Compound 110] | 0.2 to 5 | 0.2 to 5 | 0.02 to 0.2 | 0.2 to 5 | 0.02 to 0.2
Clc1cnc(NC2CN3CCC2CC3)nc1-c1c[nH]c2ccccc12 (centres unmarked) [Compound 131] | ≥ 5 | ≥ 5 | ≥ 5 | ≥ 5 | 0.2 to 5
CC(C)N1CCCC(Nc2ncc(Cl)c(-c3c[nH]c4ccccc34)n2)C1 (centres unmarked) [Compound 148] | ≥ 5 | 0.2 to 5 | 0.02 to 0.2 | 0.2 to 5 | 0.02 to 0.2
FC(F)(F)Cc1cnc(N[C@H]2CCCNC2)nc1-c1c[nH]c2ccccc12 [Compound 158] | ≥ 5 | ≥ 5 | 0.2 to 5 | 0.2 to 5 | 0.02 to 0.2
CC(C)C1CCC(Nc2nccc(-c3c[nH]c4ccccc34)n2)CN1 (centres unmarked) [Compound 237] | 0.2 to 5 | ≥ 5 | 0.02 to 0.2 | 0.2 to 5 | 
CC(O)c1cnc(NC2CCCNC2)nc1-c1c[nH]c2ccccc12 (centres unmarked) [Compound 239] | ≥ 5 | ≥ 5 | 0.2 to 5 | ≥ 5 | 0.2 to 5
Clc1cnc(NC2CCCNC2)nc1-c1c[nH]c2ccncc12 (centres unmarked) [Compound 117] | 0.2 to 5 | 0.2 to 5 | 0.02 to 0.2 | 0.2 to 5 | 0.02 to 0.2
CC(C)CN1CCCC(Nc2ncc(Cl)c(-c3c[nH]c4ccccc34)n2)C1 (centres unmarked) [Compound 145] | ≥ 5 | ≥ 5 | 0.02 to 0.2 | 0.2 to 5 | 0.2 to 5
Clc1cnc(NC2(c3ccccc3)CCCNC2)nc1-c1c[nH]c2ccccc12 (centres unmarked) [Compound 130] |  |  | ≥ 5 | ≥ 5 | 0.2 to 5
CCc1cnc(NC2CCCNC2)nc1-c1n[nH]c2ccc(C)cc12 (centres unmarked) [Compound 120] | ≥ 5 | ≥ 5 | 0.2 to 5 | 0.2 to 5 | 
CC1CCC(Nc2ncc(Cl)c(-c3c[nH]c4ccccc34)n2)CN1 (centres unmarked) [Compound 129] |  |  | 0.02 to 0.2 | 0.2 to 5 | 0.02 to 0.2
FC(F)(F)c1cnc(NC2CCCNC2)nc1-c1c[nH]c2c(Br)cccc12 (centres unmarked) [Compound 163] |  | 0.2 to 5 | 0.02 to 0.2 | 0.2 to 5 | 0.02 to 0.2
FC(F)(F)c1cnc(NC2CNCC(c3nnc4ccccn34)C2)nc1-c1c[nH]c2ccccc12 (centres unmarked) [Compound 268] |  |  |  |  | 0.2 to 5
CCc1cnc(NC2CCCNC2)nc1-c1c[nH]c2c(S(=O)O)cccc12 (centres unmarked) [Compound 363] | ≥ 5 | ≥ 5 | 0.02 to 0.2 | ≥ 5 | 
CCC1(Nc2ncc(Cl)c(-c3c[nH]c4ccccc34)n2)CCCNC1 (centres unmarked) [Compound 128] | ≥ 5 | ≥ 5 | ≥ 5 | ≥ 5 | 
CCc1cnc(N[C@H]2CCCNC2)nc1-c1c[nH]c2c(S(=O)(=O)O)cccc12 [Compound 362] | ≥ 5 | ≥ 5 | 0.02 to 0.2 | ≥ 5 | 
CC1CCNCC1Nc1ncc(Cl)c(-c2c[nH]c3ccccc23)n1 (centres unmarked) [Compound 126] | 0.2 to 5 | 0.2 to 5 | 0.02 to 0.2 | 0.2 to 5 | 
CC1(O)CCC(c2cccc3c(-c4nc(NC5CCCNC5)ncc4C(F)(F)F)c[nH]c23)CC1 (centres unmarked) [Compound 193] | 0.2 to 5 | 0.2 to 5 | 0.02 to 0.2 | 0.2 to 5 | 
CCc1cnc(N[C@H]2CCCNC2)nc1-c1c[nH]c2cc(S(C)(=O)=O)ccc12 [Compound 271] |  |  |  |  | 0.2 to 5
FC(F)(F)c1cnc(NC2CCCNC2)nc1-c1c[nH]c2c(-c3ccncc3)cccc12 (centres unmarked) [Compound 162] |  | 0.2 to 5 | 0.02 to 0.2 | 0.2 to 5 | < 0.02
CSc1cnc(NC2CCCNC2)nc1-c1c[nH]c2cc(C#N)ccc12 (centres unmarked) [Compound 272] |  |  |  |  | 0.02 to 0.2

Continued, in another order:

IC50 [2] [µM] | IC50 [3] [µM] | IC50 [4] [µM] | IC50 [5] [µM] | SMILES | IC50 [1] [µM]
 | 0.2 to 5 | 0.02 to 0.2 | 0.2 to 5 | Cn1cc(-c2cccc3c(-c4nc(NC5CCCNC5)ncc4C(F)(F)F)c[nH]c23)cn1 (centres unmarked) [Compound 164] | < 0.02
0.2 to 5 | 0.2 to 5 | < 0.02 | 0.2 to 5 | Fc1cccc2c(-c3nc(N[C@H]4CCCNC4)ncc3C(F)(F)F)n[nH]c12 [Compound 156] | < 0.02
0.2 to 5 | 0.2 to 5 | < 0.02 | 0.2 to 5 | N#Cc1cnc(NC2CCCNC2)nc1-c1c[nH]c2ccccc12 (centres unmarked) [Compound 157] | < 0.02
≥ 5 | ≥ 5 | 0.02 to 0.2 | ≥ 5 | CC1CCNCC1Nc1ncc(Cl)c(-c2c[nH]c3ccccc23)n1 (centres unmarked) [Compound 125] | 0.2 to 5
≥ 5 | ≥ 5 | 0.02 to 0.2 | 0.2 to 5 | CCOP(=O)(OCC)c1ccc2c(-c3nc(NC4CCCNC4)ncc3C(F)(F)F)c[nH]c2c1 (centres unmarked) [Compound 187] | 0.02 to 0.2
0.2 to 5 | 0.2 to 5 | < 0.02 | 0.02 to 0.2 | FC(F)(F)c1cnc(NC2CCCNC2)nc1-c1c[nH]c2c(Cl)cccc12 (centres unmarked) [Compound 167] | < 0.02
0.2 to 5 | 0.2 to 5 | < 0.02 | 0.2 to 5 | Cc1nn(C)cc1-c1ccc2c(-c3nc(N[C@H]4CCCNC4)ncc3C(F)(F)F)c[nH]c2c1 [Compound 226] | < 0.02
0.2 to 5 | 0.02 to 0.2 | < 0.02 | 0.02 to 0.2 | Fc1cc2[nH]cc(-c3nc(NC4CCCNC4)ncc3Cl)c2cc1F (centres unmarked) [Compound 111] | 0.02 to 0.2
0.02 to 0.2 | 0.2 to 5 | < 0.02 | 0.02 to 0.2 | Brc1cnc(N[C@@H]2CCCNC2)nc1-c1c[nH]c2ccccc12 [Compound 133] | < 0.02
0.2 to 5 | 0.2 to 5 | < 0.02 | 0.2 to 5 | Cc1n[nH]cc1-c1ccc2[nH]cc(-c3nc(NC4CCCNC4)ncc3C(F)(F)F)c2c1 (centres unmarked) [Compound 229] | < 0.02
0.2 to 5 | 0.2 to 5 | < 0.02 | 0.2 to 5 | CC(=O)c1cccc2c(-c3nc(NC4CCCNC4)ncc3Cl)c[nH]c12 (centres unmarked) [Compound 142] | < 0.02
0.2 to 5 | 0.2 to 5 | < 0.02 | 0.2 to 5 | OC1CC=C(c2cccc3c(-c4nc(NC5CCCNC5)ncc4C(F)(F)F)c[nH]c23)CC1 (centres unmarked) [Compound 198] | < 0.02
0.2 to 5 | 0.2 to 5 | < 0.02 | ≥ 5 | FC(F)(F)c1cnc(NC2CCCNC2)nc1-c1c[nH]c2cc(-c3ncc[nH]3)ccc12 (centres unmarked) [Compound 202] | 0.02 to 0.2
≥ 5 | ≥ 5 | < 0.02 | 0.2 to 5 | CC1(O)CCN(C(=O)c2ccc3c(-c4nc(NC5CCCNC5)ncc4C(F)(F)F)c[nH]c3c2)C1 (centres unmarked) [Compound 220] | 
0.2 to 5 | 0.2 to 5 | < 0.02 | 0.2 to 5 | FC(F)(F)c1cnc(N[C@H]2CCCNC2)nc1-c1c[nH]c2cc(-n3ccnc3)ccc12 [Compound 248] | 
